Source: PubChem BioAssay (NCI)
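How tested: cells in 96-well plates exposed to compound for 48 hours at five concentrations. Definition used: TGI = concentration required for complete inhibition of growth.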

Columns and labels:
Assay in all cases: DTP human tumour cell line panel, 48 h
786-0 renal = test system: 786-0 renal
A549 NSCLC = test system: A549 NSCLC
ACHN renal = test system: ACHN renal
CAKI-1 renal = test system: CAKI-1 renal
CCRF-CEM leukemia = test system: CCRF-CEM leukemia
COLO 205 colon = test system: COLO 205 colon
DLD-1 colon = test system: DLD-1 colon
DMS 114 small cell lung = test system: DMS 114 small cell lung
DMS 273 small cell lung = test system: DMS 273 small cell lung
HCT-116 colon = test system: HCT-116 colon
HCT-15 colon = test system: HCT-15 colon
HL-60(TB) leukemia = test system: HL-60(TB) leukemia
HOP-18 NSCLC = test system: HOP-18 NSCLC
HOP-62 NSCLC = test system: HOP-62 NSCLC
HOP-92 NSCLC = test system: HOP-92 NSCLC
HT29 colon = test system: HT29 colon
IGROV1 ovarian = test system: IGROV1 ovarian
K-562 leukemia = test system: K-562 leukemia
KM12 colon = test system: KM12 colon
KM20L2 colon = test system: KM20L2 colon
LOX IMVI melanoma = test system: LOX IMVI melanoma
LXFL 529 NSCLC = test system: LXFL 529 NSCLC
M14 melanoma = test system: M14 melanoma
M19-MEL melanoma = test system: M19-MEL melanoma
MALME-3M melanoma = test system: MALME-3M melanoma
MOLT-4 leukemia = test system: MOLT-4 leukemia
NCI-H226 lung = test system: NCI-H226 lung
NCI-H23 lung = test system: NCI-H23 lung
NCI-H460 lung = test system: NCI-H460 lung
NCI-H522 lung = test system: NCI-H522 lung
OVCAR-3 ovarian = test system: OVCAR-3 ovarian
OVCAR-4 ovarian = test system: OVCAR-4 ovarian
OVCAR-5 ovarian = test system: OVCAR-5 ovarian
OVCAR-8 ovarian = test system: OVCAR-8 ovarian
RPMI-8226 leukemia = test system: RPMI-8226 leukemia
RXF 393 renal = test system: RXF 393 renal
SF-268 CNS = test system: SF-268 CNS
SF-295 CNS = test system: SF-295 CNS
SF-539 CNS = test system: SF-539 CNS
SK-MEL-2 melanoma = test system: SK-MEL-2 melanoma
SK-MEL-28 melanoma = test system: SK-MEL-28 melanoma
SK-MEL-5 melanoma = test system: SK-MEL-5 melanoma
SK-OV-3 ovarian = test system: SK-OV-3 ovarian
SN12C renal = test system: SN12C renal
SNB-19 CNS = test system: SNB-19 CNS
SNB-75 CNS = test system: SNB-75 CNS
SNB-78 CNS = test system: SNB-78 CNS
SW-620 colon = test system: SW-620 colon
TK-10 renal = test system: TK-10 renal
U251 CNS = test system: U251 CNS
UACC-257 melanoma = test system: UACC-257 melanoma
UACC-62 melanoma = test system: UACC-62 melanoma
UO-31 renal = test system: UO-31 renal
XF 498 CNS = test system: XF 498 CNS
A498 renal = test system: A498 renal
EKVX NSCLC = test system: EKVX NSCLC
HCC-2998 colon = test system: HCC-2998 colon
SR leukemia = test system: SR leukemia

Question: Which TGI (786-0 renal) does the source give for CN(C(=O)c1cccs1)C(=S)N1CCN(c2ccccn2)CC1 here?
Answer: The TGI was greater than 100 µM.

Question: What about the TGI (A549 NSCLC) of the same compound?
Answer: Its TGI is greater than 100 µM.

Question: And the TGI (ACHN renal)?
Answer: The TGI was greater than 100 µM.

Question: What about the TGI (CAKI-1 renal) of the same compound?
Answer: Its TGI is greater than 100 µM.

Question: What about the TGI (CCRF-CEM leukemia) of the same compound?
Answer: Its TGI is greater than 100 µM.

Question: What about the TGI (COLO 205 colon) of the same compound?
Answer: Its TGI is greater than 100 µM.

Question: What about the TGI (DLD-1 colon) of the same compound?
Answer: Its TGI is greater than 100 µM.

Question: And the TGI (DMS 114 small cell lung)?
Answer: The TGI was greater than 100 µM.

Question: What about the TGI (DMS 273 small cell lung) of the same compound?
Answer: The TGI was greater than 100 µM.

Question: What about the TGI (HCT-116 colon) of the same compound?
Answer: The TGI was greater than 100 µM.

Question: What about the TGI (HCT-15 colon) of the same compound?
Answer: Its TGI is greater than 100 µM.

Question: And the TGI (HL-60(TB) leukemia)?
Answer: Its TGI is greater than 100 µM.

Question: And the TGI (HOP-18 NSCLC)?
Answer: Its TGI is greater than 100 µM.

Question: What about the TGI (HOP-62 NSCLC) of the same compound?
Answer: The TGI was greater than 100 µM.

Question: And the TGI (HOP-92 NSCLC)?
Answer: The TGI was greater than 100 µM.

Question: What about the TGI (HT29 colon) of the same compound?
Answer: The TGI was greater than 100 µM.

Question: And the TGI (IGROV1 ovarian)?
Answer: Its TGI is greater than 100 µM.

Question: What about the TGI (K-562 leukemia) of the same compound?
Answer: The TGI was greater than 100 µM.

Question: What about the TGI (KM12 colon) of the same compound?
Answer: Its TGI is greater than 100 µM.

Question: And the TGI (KM20L2 colon)?
Answer: The TGI was greater than 100 µM.

Question: What about the TGI (LOX IMVI melanoma) of the same compound?
Answer: Its TGI is greater than 100 µM.

Question: And the TGI (LXFL 529 NSCLC)?
Answer: Its TGI is greater than 100 µM.

Question: And the TGI (M14 melanoma)?
Answer: Its TGI is greater than 100 µM.

Question: What about the TGI (M19-MEL melanoma) of the same compound?
Answer: The TGI was greater than 100 µM.

Question: What about the TGI (MALME-3M melanoma) of the same compound?
Answer: Its TGI is greater than 100 µM.

Question: What about the TGI (MOLT-4 leukemia) of the same compound?
Answer: The TGI was greater than 100 µM.

Question: What about the TGI (NCI-H226 lung) of the same compound?
Answer: The TGI was greater than 100 µM.

Question: What about the TGI (NCI-H23 lung) of the same compound?
Answer: Its TGI is greater than 100 µM.

Question: And the TGI (NCI-H460 lung)?
Answer: The TGI was greater than 100 µM.

Question: What about the TGI (NCI-H522 lung) of the same compound?
Answer: Its TGI is greater than 100 µM.

Question: And the TGI (OVCAR-3 ovarian)?
Answer: Its TGI is greater than 100 µM.

Question: And the TGI (OVCAR-4 ovarian)?
Answer: Its TGI is greater than 100 µM.

Question: And the TGI (OVCAR-5 ovarian)?
Answer: Its TGI is greater than 100 µM.

Question: And the TGI (OVCAR-8 ovarian)?
Answer: The TGI was greater than 100 µM.

Question: What about the TGI (RPMI-8226 leukemia) of the same compound?
Answer: Its TGI is greater than 100 µM.

Question: What about the TGI (RXF 393 renal) of the same compound?
Answer: Its TGI is greater than 100 µM.

Question: What about the TGI (SF-268 CNS) of the same compound?
Answer: The TGI was greater than 100 µM.

Question: What about the TGI (SF-295 CNS) of the same compound?
Answer: Its TGI is greater than 100 µM.

Question: What about the TGI (SF-539 CNS) of the same compound?
Answer: Its TGI is greater than 100 µM.

Question: And the TGI (SK-MEL-2 melanoma)?
Answer: The TGI was greater than 100 µM.

Question: What about the TGI (SK-MEL-28 melanoma) of the same compound?
Answer: The TGI was greater than 100 µM.

Question: What about the TGI (SK-MEL-5 melanoma) of the same compound?
Answer: The TGI was greater than 100 µM.

Question: And the TGI (SK-OV-3 ovarian)?
Answer: Its TGI is greater than 100 µM.

Question: And the TGI (SN12C renal)?
Answer: Its TGI is greater than 100 µM.

Question: And the TGI (SNB-19 CNS)?
Answer: The TGI was greater than 100 µM.

Question: What about the TGI (SNB-75 CNS) of the same compound?
Answer: Its TGI is greater than 100 µM.

Question: What about the TGI (SNB-78 CNS) of the same compound?
Answer: The TGI was greater than 100 µM.

Question: And the TGI (SW-620 colon)?
Answer: The TGI was greater than 100 µM.

Question: And the TGI (TK-10 renal)?
Answer: Its TGI is greater than 100 µM.

Question: And the TGI (U251 CNS)?
Answer: The TGI was greater than 100 µM.

Question: And the TGI (UACC-257 melanoma)?
Answer: The TGI was greater than 100 µM.

Question: What about the TGI (UACC-62 melanoma) of the same compound?
Answer: Its TGI is greater than 100 µM.

Question: What about the TGI (UO-31 renal) of the same compound?
Answer: Its TGI is greater than 100 µM.

Question: And the TGI (XF 498 CNS)?
Answer: The TGI was greater than 100 µM.

Question: Which results are given for Cn1cnc([N+](=O)[O-])c1Sc1nc2ncccc2[nH]1?
Answer: TGI (786-0 renal): > 100 µM; TGI (A498 renal): > 100 µM; TGI (A549 NSCLC): > 100 µM; TGI (ACHN renal): > 100 µM; TGI (CAKI-1 renal): 85.6 µM; TGI (CCRF-CEM leukemia): 64.2 µM; TGI (COLO 205 colon): 56.5 µM; TGI (DLD-1 colon): > 100 µM; TGI (DMS 114 small cell lung): 74.4 µM; TGI (EKVX NSCLC): > 100 µM; TGI (HCC-2998 colon): > 100 µM; TGI (HCT-116 colon): > 100 µM; TGI (HCT-15 colon): > 100 µM; TGI (HL-60(TB) leukemia): 62.6 µM; TGI (HOP-18 NSCLC): > 100 µM; TGI (HOP-62 NSCLC): > 100 µM; TGI (HOP-92 NSCLC): > 100 µM; TGI (HT29 colon): > 100 µM; TGI (IGROV1 ovarian): > 100 µM; TGI (K-562 leukemia): > 100 µM; TGI (KM12 colon): > 100 µM; TGI (KM20L2 colon): > 100 µM; TGI (LOX IMVI melanoma): > 100 µM; TGI (LXFL 529 NSCLC): > 100 µM; TGI (M14 melanoma): > 100 µM; TGI (MALME-3M melanoma): > 100 µM; TGI (MOLT-4 leukemia): > 100 µM; TGI (NCI-H226 lung): > 100 µM; TGI (NCI-H23 lung): > 100 µM; TGI (NCI-H460 lung): > 100 µM; TGI (OVCAR-3 ovarian): > 100 µM; TGI (OVCAR-4 ovarian): > 100 µM; TGI (OVCAR-5 ovarian): > 100 µM; TGI (OVCAR-8 ovarian): > 100 µM; TGI (RPMI-8226 leukemia): > 100 µM; TGI (RXF 393 renal): > 100 µM; TGI (SF-268 CNS): > 100 µM; TGI (SF-295 CNS): > 100 µM; TGI (SF-539 CNS): > 100 µM; TGI (SK-MEL-28 melanoma): > 100 µM; TGI (SK-MEL-5 melanoma): > 100 µM; TGI (SK-OV-3 ovarian): > 100 µM; TGI (SN12C renal): > 100 µM; TGI (SNB-19 CNS): > 100 µM; TGI (SNB-75 CNS): > 100 µM; TGI (SNB-78 CNS): > 100 µM; TGI (SR leukemia): > 100 µM; TGI (SW-620 colon): > 100 µM; TGI (TK-10 renal): > 100 µM; TGI (U251 CNS): > 100 µM; TGI (UACC-257 melanoma): > 100 µM; TGI (UACC-62 melanoma): > 100 µM; TGI (UO-31 renal): > 100 µM; TGI (XF 498 CNS): > 100 µM
